Source: PubChem BioAssay (NCI)
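The compound was tested at five concentrations on cells cultured in 96-well plates, with a 48-hour exposure period. TGI: concentration producing complete growth inhibition.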

Assays:
Assay in all cases: DTP human tumour cell line panel, 48 h
COLO 205 colon = test system: COLO 205 colon
OVCAR-3 ovarian = test system: OVCAR-3 ovarian
786-0 renal = test system: 786-0 renal
CCRF-CEM leukemia = test system: CCRF-CEM leukemia
EKVX NSCLC = test system: EKVX NSCLC
SK-MEL-5 melanoma = test system: SK-MEL-5 melanoma
SK-OV-3 ovarian = test system: SK-OV-3 ovarian
SN12C renal = test system: SN12C renal
SNB-75 CNS = test system: SNB-75 CNS
MDA-N = test system: MDA-N
SR leukemia = test system: SR leukemia
KM12 colon = test system: KM12 colon
MDA-MB-231 breast = test system: MDA-MB-231 breast
SF-295 CNS = test system: SF-295 CNS
CAKI-1 renal = test system: CAKI-1 renal
SNB-19 CNS = test system: SNB-19 CNS
SF-539 CNS = test system: SF-539 CNS
UACC-257 melanoma = test system: UACC-257 melanoma
HS 578T breast = test system: HS 578T breast
A498 renal = test system: A498 renal
A549 NSCLC = test system: A549 NSCLC
MALME-3M melanoma = test system: MALME-3M melanoma
MCF7 breast = test system: MCF7 breast
NCI/ADR-RES ovarian = test system: NCI/ADR-RES ovarian
MOLT-4 leukemia = test system: MOLT-4 leukemia
LOX IMVI melanoma = test system: LOX IMVI melanoma
DU-145 prostate = test system: DU-145 prostate
SW-620 colon = test system: SW-620 colon
NCI-H460 lung = test system: NCI-H460 lung
SF-268 CNS = test system: SF-268 CNS
HCT-116 colon = test system: HCT-116 colon
HT29 colon = test system: HT29 colon
UO-31 renal = test system: UO-31 renal
OVCAR-4 ovarian = test system: OVCAR-4 ovarian
IGROV1 ovarian = test system: IGROV1 ovarian
SK-MEL-2 melanoma = test system: SK-MEL-2 melanoma
HCT-15 colon = test system: HCT-15 colon
NCI-H23 lung = test system: NCI-H23 lung
U251 CNS = test system: U251 CNS
K-562 leukemia = test system: K-562 leukemia
T-47D breast = test system: T-47D breast
OVCAR-5 ovarian = test system: OVCAR-5 ovarian
OVCAR-8 ovarian = test system: OVCAR-8 ovarian
ACHN renal = test system: ACHN renal
TK-10 renal = test system: TK-10 renal
HOP-62 NSCLC = test system: HOP-62 NSCLC
PC-3 prostate = test system: PC-3 prostate
SK-MEL-28 melanoma = test system: SK-MEL-28 melanoma
HL-60(TB) leukemia = test system: HL-60(TB) leukemia
HOP-92 NSCLC = test system: HOP-92 NSCLC
HCC-2998 colon = test system: HCC-2998 colon
RXF 393 renal = test system: RXF 393 renal
BT-549 breast = test system: BT-549 breast
NCI-H522 lung = test system: NCI-H522 lung
NCI-H226 lung = test system: NCI-H226 lung
RPMI-8226 leukemia = test system: RPMI-8226 leukemia
M14 melanoma = test system: M14 melanoma
MDA-MB-435 = test system: MDA-MB-435
UACC-62 melanoma = test system: UACC-62 melanoma

Measured: TGI

Cc1ccc(N(C(=O)Nc2ccc(F)c(Cl)c2)C2=NCC(C)S2)cc1 (configuration not stated)
41 µM: SK-MEL-5 melanoma
32.6 µM: MCF7 breast
73.2 µM: NCI/ADR-RES ovarian | HL-60(TB) leukemia
not listed: HOP-92 NSCLC | HCC-2998 colon | RXF 393 renal | BT-549 breast | NCI-H522 lung | NCI-H226 lung | RPMI-8226 leukemia | M14 melanoma | MDA-MB-435 | UACC-62 melanoma
> 100 µM: all other assays above

C[C@]12C[C@@H](c3ccccc3)Nc3ccccc3N1C(c1ccccc1)=NO2
81.9 µM: OVCAR-4 ovarian
74.3 µM: CCRF-CEM leukemia
79.3 µM: EKVX NSCLC
86.4 µM: NCI-H522 lung
69.4 µM: SNB-75 CNS
90.3 µM: BT-549 breast
58.4 µM: HOP-92 NSCLC
58.5 µM: MDA-MB-435
34.7 µM: COLO 205 colon
43.5 µM: MOLT-4 leukemia
49.3 µM: RPMI-8226 leukemia
93.3 µM: M14 melanoma
90.8 µM: NCI-H226 lung
71.9 µM: HL-60(TB) leukemia
68.7 µM: MDA-N
30.8 µM: SK-MEL-5 melanoma
34.6 µM: SR leukemia
76.3 µM: SK-MEL-2 melanoma
89.5 µM: UO-31 renal
not listed: LOX IMVI melanoma | T-47D breast | SK-MEL-28 melanoma
> 100 µM: all other assays above

Cc1ccc(C)n1-c1ccccc1C1C=CN(C(=O)OC(C)(C)C)C=C1
37.4 µM: LOX IMVI melanoma
56.6 µM: SNB-75 CNS
32.4 µM: COLO 205 colon
96.9 µM: NCI-H460 lung
31.2 µM: KM12 colon
46.8 µM: OVCAR-3 ovarian
60.8 µM: EKVX NSCLC
77.9 µM: UACC-62 melanoma
32.6 µM: MCF7 breast
31.5 µM: NCI-H226 lung
47.8 µM: MALME-3M melanoma
45.1 µM: HCT-116 colon
35.6 µM: SK-MEL-2 melanoma
34 µM: HCC-2998 colon
53.3 µM: MDA-MB-231 breast
27.7 µM: HT29 colon
41.7 µM: SW-620 colon
77.8 µM: U251 CNS
68.7 µM: MOLT-4 leukemia
60.4 µM: RXF 393 renal
45.7 µM: HCT-15 colon
36.2 µM: NCI-H522 lung
not listed: SR leukemia | T-47D breast
> 100 µM: all other assays above

Nc1ncnc2c1ncn2C1OC(CO)C(O)C(O)C1O (configuration not stated)
not listed: SK-OV-3 ovarian | T-47D breast | RXF 393 renal | UACC-62 melanoma
> 100 µM: all other assays above
